Laboratory results as given in patent US12516056B2, “Compounds for inhibition of janus kinase 1” (MANKIND PHARMA LTD., priority 2019, dated 2026).
Like-named read-outs stand apart in the source and are kept apart here.

Columns and labels:
[1] = test system: STAT3 phosphorylation by IL-6 in TF-1 cells; assay: JAK cellular assay: STAT3 phosphorylation by IL-6 in TF-1 cells (HTRF); type: cell-based; details: Homo sapiens, TF-1, TF-1 cells
Outline: (§1)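 Phospho-STAT3 (IL-6, 30 ng/ml) and phospho-STAT5 (GMCSF, 5 ng/ml) read by HTRF in lysates after 20 min cytokine exposure, minus unstimulated-cell background. Cells were serum-starved overnight, plated at 120,000/well, given compound 30 min at 37 °C beforehand; DMSO 0.2% final.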

[2] = test system: IFN-γ production in NK 92 cells by IL-12; assay: IFN-γ production in NK 92 cells by IL-12 (ELISA); details: NK92, IFN-γ detection from cell supernatants, read-out: Cell based IC50 (μM) NK-92/IL-12*
Method: NK 92 cells were cultured in medium without IL-2 for overnight. Next day, 5000 cells per well NK 92 cells were seeded in a 96 well plate. Compounds were added to cells and incubated for 1 hour. Later IL-12, 10 U/ml was added to cells and incubated for overnight. Supernatant was collected from the wells and IFN-7 secretion was measured by using human IFN-7 ELISA kit. Absorbance was measured at 450 nm in BMG FLUOstar. Background signal obtained from cells which were not activated with cytokines, was subtracted from vehicle controls and compound treated wells.

Recombinant JAK1 = target: T1, Recombinant JAK1 (Homo sapiens, UniProt P23458); assay: JAK biochemical assay (LANCE Ultra TR-FRET), JAK1
T1 construct: purchased Carna Biosciences
T1 sequence (P23458 whole entry): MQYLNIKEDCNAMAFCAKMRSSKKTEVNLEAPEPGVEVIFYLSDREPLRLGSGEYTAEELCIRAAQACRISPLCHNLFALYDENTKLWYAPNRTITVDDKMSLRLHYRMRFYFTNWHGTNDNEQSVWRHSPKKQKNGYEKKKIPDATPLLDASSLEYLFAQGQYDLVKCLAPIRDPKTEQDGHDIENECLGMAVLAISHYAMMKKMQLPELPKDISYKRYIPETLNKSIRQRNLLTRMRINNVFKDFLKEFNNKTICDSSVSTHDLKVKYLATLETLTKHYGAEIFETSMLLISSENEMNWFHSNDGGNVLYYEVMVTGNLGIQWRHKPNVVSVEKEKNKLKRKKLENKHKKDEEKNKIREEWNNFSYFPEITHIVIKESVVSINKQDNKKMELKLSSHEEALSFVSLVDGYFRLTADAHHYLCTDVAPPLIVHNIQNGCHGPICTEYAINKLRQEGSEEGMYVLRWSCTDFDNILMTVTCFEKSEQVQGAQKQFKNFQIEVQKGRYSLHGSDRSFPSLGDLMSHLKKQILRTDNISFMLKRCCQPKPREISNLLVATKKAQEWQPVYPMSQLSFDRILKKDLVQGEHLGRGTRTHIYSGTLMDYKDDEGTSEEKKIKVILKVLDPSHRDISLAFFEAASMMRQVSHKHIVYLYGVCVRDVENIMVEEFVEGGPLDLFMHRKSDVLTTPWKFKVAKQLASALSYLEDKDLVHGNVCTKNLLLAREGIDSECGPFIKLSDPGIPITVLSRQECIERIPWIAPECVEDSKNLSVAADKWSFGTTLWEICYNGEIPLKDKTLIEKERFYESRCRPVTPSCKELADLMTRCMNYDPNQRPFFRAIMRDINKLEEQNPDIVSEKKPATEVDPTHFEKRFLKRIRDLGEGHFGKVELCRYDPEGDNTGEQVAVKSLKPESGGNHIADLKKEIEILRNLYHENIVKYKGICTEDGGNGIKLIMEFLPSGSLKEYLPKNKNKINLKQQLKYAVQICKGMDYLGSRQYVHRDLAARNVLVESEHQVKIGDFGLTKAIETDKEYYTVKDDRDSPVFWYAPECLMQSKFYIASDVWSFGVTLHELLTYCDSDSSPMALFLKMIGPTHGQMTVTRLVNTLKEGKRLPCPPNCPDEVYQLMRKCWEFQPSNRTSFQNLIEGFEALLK
Outline: (§2)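 % inhibition relative to vehicle was derived from TR-FRET signal proportional to ULight-substrate phosphorylation. Reactions used recombinant kinase in HEPES pH 7.5 buffer containing EGTA, MgCl2, DTT and Tween-20.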

Recombinant JAK2 = target: T2, Recombinant JAK2 (Homo sapiens, UniProt O60674); assay: JAK biochemical assay (LANCE Ultra TR-FRET), JAK2
T2 construct: purchased Carna Biosciences
T2 sequence (O60674 whole entry): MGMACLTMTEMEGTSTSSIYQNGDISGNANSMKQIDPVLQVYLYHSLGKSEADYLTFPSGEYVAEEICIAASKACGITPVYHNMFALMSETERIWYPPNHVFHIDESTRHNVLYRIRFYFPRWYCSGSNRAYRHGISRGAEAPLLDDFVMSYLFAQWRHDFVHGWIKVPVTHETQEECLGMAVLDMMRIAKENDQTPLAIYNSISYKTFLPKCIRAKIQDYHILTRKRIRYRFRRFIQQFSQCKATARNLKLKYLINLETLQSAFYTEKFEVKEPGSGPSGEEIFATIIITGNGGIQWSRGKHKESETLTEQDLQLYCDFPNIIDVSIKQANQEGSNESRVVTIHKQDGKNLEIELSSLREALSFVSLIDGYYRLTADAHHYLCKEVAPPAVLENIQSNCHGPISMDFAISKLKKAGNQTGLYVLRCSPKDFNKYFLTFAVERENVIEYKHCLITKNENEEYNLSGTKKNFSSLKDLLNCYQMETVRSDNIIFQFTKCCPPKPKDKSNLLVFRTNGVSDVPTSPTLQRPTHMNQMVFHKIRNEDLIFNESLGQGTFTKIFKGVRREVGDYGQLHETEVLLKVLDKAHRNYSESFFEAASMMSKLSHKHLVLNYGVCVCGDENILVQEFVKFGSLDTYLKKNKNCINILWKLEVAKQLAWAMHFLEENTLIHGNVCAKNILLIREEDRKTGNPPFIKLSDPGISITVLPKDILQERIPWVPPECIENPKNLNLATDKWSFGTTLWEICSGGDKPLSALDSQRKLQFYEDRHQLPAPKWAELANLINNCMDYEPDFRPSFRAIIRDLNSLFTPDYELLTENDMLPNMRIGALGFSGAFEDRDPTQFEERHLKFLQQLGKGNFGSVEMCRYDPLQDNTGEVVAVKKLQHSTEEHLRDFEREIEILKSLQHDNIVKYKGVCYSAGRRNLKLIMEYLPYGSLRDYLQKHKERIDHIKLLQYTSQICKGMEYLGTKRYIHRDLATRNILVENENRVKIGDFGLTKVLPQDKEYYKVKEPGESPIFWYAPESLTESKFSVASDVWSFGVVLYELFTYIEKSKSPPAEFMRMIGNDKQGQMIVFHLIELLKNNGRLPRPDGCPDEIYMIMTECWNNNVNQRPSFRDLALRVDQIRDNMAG
Outline: as §2

Recombinant TYK2 = target: T3, Recombinant TYK2 (Homo sapiens, UniProt P29597); assay: JAK biochemical assay (LANCE Ultra TR-FRET), TYK2
T3 construct: purchased Carna Biosciences
T3 sequence (P29597 whole entry): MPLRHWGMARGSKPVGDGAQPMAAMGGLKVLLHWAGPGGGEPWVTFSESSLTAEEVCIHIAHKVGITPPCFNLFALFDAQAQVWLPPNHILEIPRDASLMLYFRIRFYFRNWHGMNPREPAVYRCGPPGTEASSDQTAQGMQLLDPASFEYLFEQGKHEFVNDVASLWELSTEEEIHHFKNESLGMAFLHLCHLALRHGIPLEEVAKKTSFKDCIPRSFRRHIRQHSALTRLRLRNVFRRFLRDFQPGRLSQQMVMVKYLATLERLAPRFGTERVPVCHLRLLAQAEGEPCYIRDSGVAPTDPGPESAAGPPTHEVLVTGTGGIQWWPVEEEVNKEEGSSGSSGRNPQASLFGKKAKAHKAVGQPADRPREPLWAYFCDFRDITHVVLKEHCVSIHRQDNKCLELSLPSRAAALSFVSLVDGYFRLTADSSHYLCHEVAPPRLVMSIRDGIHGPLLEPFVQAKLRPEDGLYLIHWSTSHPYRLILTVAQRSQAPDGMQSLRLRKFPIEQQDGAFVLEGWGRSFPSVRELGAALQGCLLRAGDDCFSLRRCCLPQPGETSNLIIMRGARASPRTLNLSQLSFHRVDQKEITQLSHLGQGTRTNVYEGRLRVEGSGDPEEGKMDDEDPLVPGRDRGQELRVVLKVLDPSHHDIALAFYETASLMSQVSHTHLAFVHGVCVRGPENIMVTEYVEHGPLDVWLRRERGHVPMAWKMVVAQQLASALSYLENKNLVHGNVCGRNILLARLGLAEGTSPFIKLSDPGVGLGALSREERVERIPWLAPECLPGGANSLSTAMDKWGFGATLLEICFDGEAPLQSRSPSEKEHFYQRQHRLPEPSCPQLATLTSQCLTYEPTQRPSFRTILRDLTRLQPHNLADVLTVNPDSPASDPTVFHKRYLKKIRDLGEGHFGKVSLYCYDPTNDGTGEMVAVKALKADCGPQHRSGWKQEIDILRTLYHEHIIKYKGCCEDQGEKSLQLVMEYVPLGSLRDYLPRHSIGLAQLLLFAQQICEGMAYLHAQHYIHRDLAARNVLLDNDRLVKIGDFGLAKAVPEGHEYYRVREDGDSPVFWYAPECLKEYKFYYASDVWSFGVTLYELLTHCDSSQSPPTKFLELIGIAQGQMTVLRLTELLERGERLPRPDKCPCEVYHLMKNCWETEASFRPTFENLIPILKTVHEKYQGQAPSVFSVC
Outline: as §2

Recombinant JAK3 = target: T4, Recombinant JAK3 (Homo sapiens, UniProt P52333); assay: JAK biochemical assay (LANCE Ultra TR-FRET), JAK3
T4 construct: purchased Carna Biosciences
T4 sequence (P52333 1-1124): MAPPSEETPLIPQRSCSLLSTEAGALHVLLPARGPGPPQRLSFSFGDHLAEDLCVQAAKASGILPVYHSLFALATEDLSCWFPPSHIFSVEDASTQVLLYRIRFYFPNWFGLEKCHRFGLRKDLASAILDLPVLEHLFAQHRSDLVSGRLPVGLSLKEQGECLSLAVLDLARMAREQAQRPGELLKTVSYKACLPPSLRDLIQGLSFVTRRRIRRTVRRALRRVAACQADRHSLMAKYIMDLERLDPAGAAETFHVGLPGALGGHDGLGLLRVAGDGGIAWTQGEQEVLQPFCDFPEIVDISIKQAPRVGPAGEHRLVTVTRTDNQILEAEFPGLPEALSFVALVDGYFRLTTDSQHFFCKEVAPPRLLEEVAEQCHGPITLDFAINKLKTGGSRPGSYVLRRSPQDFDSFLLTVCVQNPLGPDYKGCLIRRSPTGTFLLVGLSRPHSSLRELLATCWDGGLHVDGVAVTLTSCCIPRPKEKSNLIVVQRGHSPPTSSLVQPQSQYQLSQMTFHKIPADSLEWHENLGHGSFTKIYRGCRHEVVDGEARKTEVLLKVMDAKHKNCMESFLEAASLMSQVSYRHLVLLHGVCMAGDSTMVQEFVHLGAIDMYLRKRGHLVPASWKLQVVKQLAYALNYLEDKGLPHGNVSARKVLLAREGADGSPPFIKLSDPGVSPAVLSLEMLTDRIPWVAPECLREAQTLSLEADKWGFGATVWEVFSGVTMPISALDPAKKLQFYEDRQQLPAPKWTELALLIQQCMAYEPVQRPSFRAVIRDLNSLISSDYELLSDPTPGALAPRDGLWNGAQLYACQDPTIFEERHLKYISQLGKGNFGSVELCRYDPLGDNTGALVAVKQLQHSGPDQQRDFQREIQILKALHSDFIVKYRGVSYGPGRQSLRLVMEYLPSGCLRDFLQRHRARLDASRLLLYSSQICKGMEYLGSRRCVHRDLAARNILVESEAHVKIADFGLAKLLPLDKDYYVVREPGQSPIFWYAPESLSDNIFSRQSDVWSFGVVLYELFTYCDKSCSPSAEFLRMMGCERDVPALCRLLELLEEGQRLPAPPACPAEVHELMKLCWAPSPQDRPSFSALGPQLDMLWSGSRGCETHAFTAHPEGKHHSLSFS
Outline: as §2

[3] = test system: STAT5 phosphorylation by GMCSF in TF-1 cells; assay: JAK cellular assay: STAT5 phosphorylation by GMCSF in TF-1 cells (HTRF); type: cell-based; details: Homo sapiens, TF-1 cells
Outline: as §1

[4] = IL-6 30 ng/ml, pSTAT3 HTRF, read-out: Cell Based Assay (μM) TF-1/IL-6/pSTAT3
[5] = IL-6 stimulation, read-out: Cell based IC50 (μM) TF-1/IL-6
[6] = read-out: Biochemical IC50 (nM) JAK1
[7] = recombinant JAK1, TR-FRET, read-out: Biochemical Assay (μM) JAK1
[8] = read-out: Biochemical IC50 (nM) JAK2
[9] = read-out: Biochemical IC50 (nM) TYK2
[10] = recombinant TYK2, TR-FRET, read-out: Biochemical Assay (μM) TYK2
[11] = read-out: Biochemical IC50 (nM) JAK3
[12] = GM-CSF stimulation, read-out: Cell based IC50 (μM) TF-1/GM-CSF

Row | IC50 [1, 4] [µM] | IC50 [1, 5] [µM] | IC50 [2] [µM] | IC50 (Recombinant JAK1; [6]) [nM] | IC50 (Recombinant JAK1; [7]) [nM] | IC50 (Recombinant JAK2; [8]) [nM] | IC50 (Recombinant TYK2; [9]) [nM] | IC50 (Recombinant TYK2; [10]) [nM] | IC50 (Recombinant JAK3; [11]) [nM] | IC50 [3, 12] [µM] | IC50 ([3]; GMCSF 5 ng/ml, pSTAT5 HTRF, read-out: Cell Based Assay (μM) TF-1/GMCSF/pSTAT5) [µM] | IC50 (Recombinant JAK2; recombinant JAK2, TR-FRET, read-out: Biochemical Assay (μM) JAK2) [nM] | IC50 (Recombinant JAK3; recombinant JAK3, TR-FRET, read-out: Biochemical Assay (μM) JAK3) [nM] | SMILES
1 | 0.6 | 0.6 | > 10 | 8 | < 100 | 152 | 850 | > 1000 | 100 | > 10 | > 10 | – | – | CN1CCC(C(O)(c2ccc(-n3cc(-c4ccnc5[nH]cnc45)cn3)nc2)C(F)(F)F)CC1 (centres unmarked) [Example 1133, 1-(6-(4-(3H-imidazo[4,5-b]pyridin-7-yl)-1H-pyrazol-1-yl)pyridin-3-yl)-2,2,2-trifluoro-1-(1-methylpiperidin-4-yl)ethanol]
2 | 0.32 | 0.3 | > 10 | 0.5 | < 100 | 40 | > 100 | > 1000 | 11 | > 10 | – | < 100 | < 100 | CC(C)NC(=O)CC[C@@H](c1ccc(-n2cc(-c3ccnc4[nH]cnc34)cn2)nc1)C(F)(F)F [Example 1215, (S)-4-(6-(4-(3H-imidazo[4,5-b]pyridin-7-yl)-1H-pyrazol-1-yl)pyridin-3-yl)-5,5,5-trifluoro-N-isopropylpentanamide]
